Source: paper PMC4647837, “Biocompatible fluorescent supramolecular nanofibrous hydrogel for long-term cell tracking and tumor imaging applications” (Scientific Reports, 2015)

Key:
4T1 tumor-bearing mice [1] = experiment: Fluorescence imaging in tissue slices (CLSM); format: in vivo, BALB/c mice; details: intravenous, 0.1 mL of 100 μM, 0.5 h post-injection; vessels immunostained with PECAM-1
Protocol: At 0.5 h post administration of 0.1 mL of fluorescent nanofiber and precursor (100 μM), respectively, the mice were sacrificed. Subsequently, the tumor tissues were dissected, fixed in 4% paraformaldehyde for 2 h, incubated in 20% sucrose/PBS overnight and embedded in Optimal Cutting Temperature (OCT) compound (Tissue-Tek). Sections (6 μm) were immunostained with monoclonal antibody against platelet/endothelial cell adhesion molecule 1 (PECAM-1; PharMingen). Alexa Fluor 633-conjugated antirabbit antibody was used as secondary antibody (Molecular Probes). The cell nuclei were stained with DAPI. The tumor slices were imaged by CLSM with excitation wavelength at 405 nm, 543 nm, and 633 nm for DAPI, Rhodamine B, and PECAM-1, respectively. Furthermore, at 24 h post administration of nanofiber and precursor, respectively, the slices of various tissues including tumor, intestine, liver, spleen, kidney, and heart were obtained following the aforementioned experimental procedures. After that, the cell nuclei in the tissue slices were stained with DAPI, which was followed by imaging with CLSM.

[2] = Gelation after GSH addition, vial inversion method; format: physicochemical
Protocol: Therefore, rheological measurement of the hydrogel was carried out.
5.0 mg of Rhodamine-GFFYE-CS-EE and 3 equiv. of Na2CO3 (in order to adjust the pH value of the final solution) were dissolved in 1.0 mL of PBS buffer (pH 7.4), and then 4 equiv. of reduced glutathione (GSH) was added to the solution. After about 20 minutes at room temperature, the self-supporting hydrogel was formed. Moreover, after dilution of the hydrogel with aqueous solution, the fluorescent nanofiber suspension was obtained.

4T1 tumor-bearing mice [3] = experiment: Ex vivo fluorescence imaging of tumor and organs (Maestro system); details: intravenous, 0.1 mL of 100 μM, 24 h post-injection; excitation 523 nm
Protocol: Eight-week-old BALB/c mice were purchase from the Laboratory Animal Center of the Academy of Military Medical Sciences (Beijing, China). To establish tumor-bearing mouse model, a 4T1 cancer cell suspension containing 5 × 10^5 cells (50 μL) was injected subcutaneously into the mice at the right axillae.
4T1 tumor-bearing mice were intravenously administrated with 0.1 mL of fluorescent nanofiber or precursor (100 μM). At 24 h post-injection, the mice were sacrificed, the tissues including liver, kidney, spleen, intestine, heart, lung, stomach, skin, muscle and tumor were excised and imaged using the Maestro system (CRi, Inc., Woburn, USA). Light with a central wavelength of 523 nm was selected as the excitation source. Spectral imaging from 560 to 900 nm with 10 nm steps was carried out with an exposure time of 150 ms.

HeLa cancer cells = experiment: Cellular uptake and imaging by CLSM; format: cell-based, Human; details: Rhodamine B concentration 100 μM, 2 h, FBS-free DMEM, excitation 543 nm
Protocol: The HeLa cancer cells were cultured in confocal imaging chambers (LAB-TEK, Chambered Coverglass System) at 37 °C. After 80% confluence, the medium was removed and the adherent cells were washed twice with 1 × PBS buffer. The nanofiber and precursor in FBS-free DMEM medium at the Rhodamine B concentration of 100 μM were then added to the chamber, respectively. After incubation for 2 h, the cells were washed with 1 × PBS buffer and then imaged with confocal laser scanning microscope (CLSM, Zeiss LSM 410, Jena, Germany). The fluorescent signal from the Rhodamine B was collected upon excitation at 543 nm with a 560 nm longpass barrier filter. The HepG2 cancer cellular imaging was performed following the same experimental procedures.

living cells = details: cited from earlier work
Protocol: Long-term cell tracking have recently attracted intensive research interest, as it can provide meritorious information on cell therapy and its processes, as well as on studying the mechanism of cancer pathogenesis, invasion and metastasis. Consequently, the application of the fluorescent nanofibrous hydrogel in long-term cell tracking was investigated. The HeLa cancer cells were incubated with the nanofiber suspension for 4 h at 37 °C. Subsequently, the nanofiber-labeled cells were subcultured for designated time intervals, followed by imaging with CLSM.

Row | time of gelation process after addition of GSH ([2]; 37 °C) | time to hydrogel formation after addition of GSH ([2]; room temperature) | Compound | red fluorescence in tumor slices (tumor accumulation) (4T1 tumor-bearing mice [1]) | ex vivo fluorescence signal in tumor (4T1 tumor-bearing mice [3]) | cellular uptake / spatial distribution in cells (HeLa cancer cells) | number of passages over which living cells can be traced (living cells)
1 | around 30 min | 2 h | Rhodamine-GFFYE-CS-EE [precursor, Rhodamine B-capped self-assembling peptide with cystamine succinate disulfide linker and hydrophilic EE; precursor of the supramolecular hydrogel] | negligible red fluorescence | far weaker | internalized in the cell cytoplasm | –
2 | – | – | CC(=O)Oc1ccc2c(c1)Oc1cc(OC(C)=O)ccc1C21OC(=O)c2cc(CCl)ccc21 [CellTrackerTM Green CMFDA] | – | – | – | no more than 3 passages
